Where “and” joins values, the source holds several entries; their conditions need not be identical. Identical values can stand only once. Square brackets hold non-standard residues; d marks the D form. Peptide text beside a SMILES is read from it. * marks the point of attachment. Sta = CC(C)C[C@H](N)[C@@H](O)CC(=O)O; pNA = O=[N+]([O-])c1ccc(N*)cc1; Isovaleryl = CC(C)CC(=O)*; MeOSuc = COC(=O)CCC(=O)*
Assays:
[1] = target: T1, recombinant HRV 3C protease (Human rhinovirus 14, UniProt P03303); experiment: HRV 3C protease activity with inhibitors (Buffer+3C, PEP1); type: biochemical; conditions: 4 μM PEP1; 50 nM recombinant HRV 3C protease
T1 construct: Reactions were performed at 4 μM PEP1 and 50 nM recombinant HRV 3C protease
Method: (§1) All inhibitors were dissolved at 100×, aliquoted, stored and used according to the manufacturers' instructions. No freeze thaw cycles were imposed on the inhibitors. Prior to starting the assay by addition of substrate, 10 μl of the cocktail or individual inhibitor was incubated for 5 min with 90 μl of the sample/buffer+ HRV protease.
(§2) To test the effect of the inhibitors on protease activity (Buffer+3C) and on background noise present in a nasal wash specimen pool, reaction rates were compared with or without the inhibitors in question (Table 12). Reactions were performed at 4 μM PEP1 and 50 nM recombinant HRV 3C protease for 5 min under starting buffer environment. A nasal wash specimen pool of four HRV negative specimens by RT-PCR was used due to insufficient volume from an individual specimen and to reproduce equal conditions throughout the experiments.
(§3) Results with and without inhibitory cocktail and with cocktail+recombinant HRV 3C protease are shown for both the specimen pool (FIG. 21A) and human WBC at ˜1×10^6 cell/ml (FIG. 21B). […] Spiking of recombinant HRV 3C protease to reactions with the inhibitory cocktail induced specific HRV protease activities at normal rates. Reactions were performed with 4 μM PEP1 and 50 nM recombinant HRV 3C protease where indicated (by +3C). The data are representative of two independent repeats.

[2] = tested on: non specific proteolytic activity of the nasal wash specimen; experiment: Background noise in nasal wash specimen pool (HRV assay, PEP1); type: biochemical; conditions: 4 μM PEP1; 5 min
Method: as §1, §2, §3

[3] = target: T2, Recombinant protease from enterovirus strain Echo (Echovirus 30, UniProt Q9WN78); experiment: Enterovirus assay optimization with recombinant Echo protease (plates, tubes, buffer, Na2SO4, substrate concentration, diluent); type: biochemical; conditions: for enzymatic activity: 0.25 uM substrate
T2 construct: Phosphoramidon was tested using the Echovirus 3C recombinant
Method: • Inhibitor Cocktail: Inhibitors cocktail I10 • Enzyme dilution buffer: −25 mM HEPES pH 7.5, 150 mM NaCl, 1 mM EDTA, 10% Glycerol, 0.5 mg/ml BSA, 1M Sucrose, 0.1% Sodium azid. • 2× reaction buffer, Buffer B: 50 mM HEPES, 10 mM EDTA, 10 mM EGTA, 1.2M Na2SO4, sodium azide 0.1%, pH 8.5 • Artificial CSF: NaCl 125 mM, KCl 2.5 mM, MgCl 1 mM, NaH2PO4 1.25 mM, CaCl2 2 mM, Glucose 2.5 mM, NaHCO3 25 mM, 0.1% Sodium azide, HEPES 25 mM, pH 7.45. • Enzyme: Recombinant protease from enterovirus strain “Echo” [dilution 1:18 • Substrate: Camb-2.3, 1 mM, Camb-2.4, 2 mM. (Different batches for the same Camb2 sequence) • HEPES Buffer: HEPES 25 mM • NB tubes: Sigma Cat #Z666505 • Amber tubes: USA scientific Inc. Cat. 1620-2707 • 96 well Plate: Dark bottom NB plate—Greiner Cat. 655900
• 1. Add artiCSF±HEPES buffer to plate • 2. Prepare 400 ul HEPES buffer±RB+substrate (camb2.3 and 2.4) in both amber and NB tubes. • 3. Add enzyme to wells • 4. Add HEPES buffer±RB+substrate to wells with multichannel pipette.
The reaction buffer is a part of the enterovirus test kit of the invention. The camb-2 substrate is dissolved in the reaction buffer. The reaction buffer contains different salts to allow the tested enzyme to work at the optimal conditions. The current reaction buffer composition is: HEPES pH 7.5, 300 mM NaCl, 10 mM EDTA, 10 mM EGTA, 10% Glycerol, 1.8M Na2SO4, 0.1% Sodium azide. The amount of salt in the reaction buffer is high and allows optimal enzymatic activity. However, under these conditions, substrate solubility is affected. Thus, the reaction buffer was improved to increase substrate solubility without reducing enzymatic activity of the tested 3C protease.
300 mM NaCl and 10% glycerol was removed from the reaction buffer and several reduced concentrations of Na2SO4 (starting at 0.9M) were tested in order to determine the minimal salt requirements of the assay (Tables 31-34). Experiments were repeated at least three times by two different scientists.
CSF sample was incubated with 50 nM Echo protease and 2× reaction buffer with 0.6M Na2SO4. Also included were 3 blanks and 9 positive control repetitions.
The effect of reduction in substrate (camb2) concentration and increase in measurement time was tested. The experiment was performed at a final substrate (camb2.5) concentrations of 1, 0.5, 0.25 and 0.125 μM and data analysis was made at different time intervals: 1.5-5, 5-12 and 5-22 min (FIGS. 27A-C).
Sodium sulfate generally has an ambivalent effect: it increase 3C protease activity and reduces substrate solubility. Once it was decided that the substrate concentration would be reduced to 0.25 uM and results analyzed at between 5-10 min, the Na2SO4 concentration was optimized. […] 0.6-0.4M Na2SO4 was tested under the new assay conditions.
• Data analysis was performed between 5-10 min. • The assay activity was measured in triplicates by three scientists. The results in Table 51 are the average of the three triplicates.
To examine the effect of substrate dilution in DMSO vs. DDW under the new assay conditions, substrate stock (1 mM in DMSO) was diluted 1:8 in DMSO or in DDW to yield the working stock. The working stocks were further diluted 1:250 in 2× RB for a concentration of 0.5 uM (0.25 uM final in the well).
The assay activity was measured in triplicates by three scientists. The results in Table 52 are the average of the three triplicates.

PSA = PSA (Homo sapiens, UniProt P07288); conditions: in the presence of 1.3M Na2SO4; cited from earlier work
a-Chymotrypsin Type IV = target: T3, a-Chymotrypsin Type IV (Bos taurus, UniProt P00766, DEL14-15/DEL147-148); experiment: Competition inhibition of chymotrypsin by two substrates; type: biochemical; conditions: Sub.-1 50 nM, Enzyme 100 pg/ml
T3 construct: purchased
Method: • Dilution and reaction Buffer: HEPES 100 mM pH=7.5. • Substrate 1 (Sub.-1) Camb-2.4 (a batch of Camb2 substrate): FRET substrate based on Alexa 532 fluorophore. • Substrate 2 (Sub.-2): Commercially available colorimetric base (420NM) a-Chymotrypsin substrate. Dissolve in 1:1 HEPES/DMSO to 20 mm. additional 1:10 dilution was done in HEPES buffer. • Enzyme—a-Chymotrypsin: Commercially available a-Chymotrypsin Type IV was diluted in HEPES buffer to a stock of 20 ug/ml. Fluorimeter: DMV, Polar-Star Galaxy. Parameters: • Ex. […]. • Temprature RT. • Total reading Time 10 min. Gain 90
• Solution-1: HEPES buffer. • Solution-2: Substrate-1 stock was diluted 1:10 in 1000 ul HEPES to give a 2× solution of 100 nM. • Solution-3, a-d: Substrate-2 stock was serially diluted 1:10 with HEPES and 10 ul of each dilution was added into 40 ul of HEPES. a-400 uM, b-40 uM, c-4 uM, d-400 nM (10× solutions) • Solution-4: Enzyme stock was diluted 1:20 into 300 ul of HEPES to give a 10× solution.
Using a multi-Channel pipette, the above Solutions were added into a non binding blacked bottom 96 wells plat, using columns 1-6 of rows A-C. 30 ul Solution-1 and 50 ul Solution-2 were added to each well. Into rows A-C, 10 ul of Solution-1 was added to columns 1 and 2, 10 ul Solution-3a was added to column 3, 10 ul Solution-3b was added to column 4, 10 ul Solution-3c was added to column 5 and 10 ul Solution-3d was added to column 6. Into rows A-C. 10 ul of Solution-1 was added to columns 1, 10 ul of Solution-4 was added to columns 2-6. Fluorimertic reading was then started.

T2 sequence (Q9WN78 1550-1732): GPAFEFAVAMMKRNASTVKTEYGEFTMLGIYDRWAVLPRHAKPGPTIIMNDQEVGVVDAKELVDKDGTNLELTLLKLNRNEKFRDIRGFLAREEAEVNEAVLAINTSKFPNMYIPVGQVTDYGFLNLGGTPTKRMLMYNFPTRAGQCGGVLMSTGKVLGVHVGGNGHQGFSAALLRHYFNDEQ
T1 sequence (P03303 1538-1719): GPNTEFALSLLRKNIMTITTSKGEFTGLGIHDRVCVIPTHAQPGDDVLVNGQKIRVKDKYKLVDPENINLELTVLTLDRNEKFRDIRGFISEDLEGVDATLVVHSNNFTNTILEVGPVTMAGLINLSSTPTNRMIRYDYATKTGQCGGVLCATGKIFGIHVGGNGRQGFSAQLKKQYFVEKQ
Sequence of PSA (P07288 25-261): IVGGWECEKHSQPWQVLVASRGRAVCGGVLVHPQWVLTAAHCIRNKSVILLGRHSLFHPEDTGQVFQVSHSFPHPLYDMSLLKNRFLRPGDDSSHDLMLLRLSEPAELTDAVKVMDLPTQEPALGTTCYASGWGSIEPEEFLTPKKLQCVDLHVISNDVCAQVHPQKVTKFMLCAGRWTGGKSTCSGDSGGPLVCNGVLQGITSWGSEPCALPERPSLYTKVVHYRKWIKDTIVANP

CC(C)C[C@H](NC(=O)[C@@H](O)[C@H](N)Cc1ccccc1)C(=O)O [Bestatin]
inhibition of HRV 3C protease activity [1]: did not inhibit
effect on the non specific proteolytic activity of the nasal wash specimen [2]: no effect

CC(C)C[C@H](NC(=O)[C@H]1O[C@@H]1C(=O)O)C(=O)NCCCCN=C(N)N [E-64]
inhibition of HRV 3C protease activity [1]: no inhibition

CC(C)[C@@H]1C(=O)N(S(C)(=O)=O)[C@@H]2CCN(C(=O)/C=C/CN3CCCCC3)[C@H]21.Cl [GW311616A]
inhibition of HRV 3C protease activity [1]: did not inhibit

O=S(=O)([O-])[O-].[Na+].[Na+] [Na2SO4]
Positive control reaction rate, 0.4M Na2SO4, Averages ± SE ([3]; 0.4M Na2SO4, average of all experiments, analysis 5-10 min): 444 ± 75 RFU/min
enzymatic activity ([3]; 0.4M sodium sulfate, analysis 5-10 min): 444
Positive control reaction rate, 0.5M Na2SO4, Averages ± SE ([3]; 0.5M Na2SO4, average of all experiments, analysis 5-10 min): 703 ± 56 RFU/min
enzymatic activity ([3]; 0.5M sodium sulfate, analysis 5-10 min): 700
Positive control reaction rate, 0.6M Na2SO4, Averages ± SE ([3]; 0.6M Na2SO4, average of all experiments, analysis 5-10 min): 825 ± 31 RFU/min
Positive control reaction rate, 0.6M Na2SO4 ([3]; 0.6M Na2SO4 final, recombinant Echo protease positive control, 0.25 uM camb2.5 substrate, data analysis 5-10 min, single experiments (EXP)): 679 RFU/min and 918 RFU/min and 921 RFU/min and 739 RFU/min and 770 RFU/min and 862 RFU/min and 890 RFU/min and 824 RFU/min
enzymatic activity ([3]; 0.6M sodium sulfate, analysis 5-10 min): 825
increase of PSA photolytic activity (PSA): > 103 fold

CC(C)CC(=O)N[C@H](C(=O)N[C@H](C(=O)N[C@@H](CC(C)C)[C@@H](O)CC(=O)N[C@@H](C)C(=O)N[C@@H](CC(C)C)[C@@H](O)CC(=O)O)C(C)C)C(C)C [Pepstatin A] (Isovaleryl-VV[Sta]A[Sta]-OH)
inhibition of HRV 3C protease activity [1]: did not inhibit
effect on the non specific proteolytic activity of the nasal wash specimen [2]: no effect

Ac-DEVD-CHO
effect on the non specific proteolytic activity of the nasal wash specimen [2]: no effect

Heparin
inhibition of HRV 3C protease activity [1]: did not inhibit

M-Suc-Ala-Ala-Pro-Phe-p-Nitr (MeOSuc-AAPF-pNA; SMILES COC(=O)CCC(=O)N[C@@H](C)C(=O)N[C@@H](C)C(=O)N1CCC[C@H]1C(=O)N[C@@H](Cc1ccccc1)C(=O)Nc1ccc([N+](=O)[O-])cc1) [Sub.-2, Commercially available colorimetric a-Chymotrypsin substrate]
Inhibition % (a-Chymotrypsin Type IV; Sub.-2 40 nM): 10%
Rate FU/min (Average) (a-Chymotrypsin Type IV; Sub.-2 40 nM): 18000 FU/min
Inhibition % (a-Chymotrypsin Type IV; Sub.-2 400 nM): 20%
Rate FU/min (Average) (a-Chymotrypsin Type IV; Sub.-2 400 nM): 16000 FU/min
Inhibition % (a-Chymotrypsin Type IV; Sub.-2 4 uM): 40%
Rate FU/min (Average) (a-Chymotrypsin Type IV; Sub.-2 4 uM): 12000 FU/min
Inhibition % (a-Chymotrypsin Type IV; Sub.-2 40 uM): 55%
Rate FU/min (Average) (a-Chymotrypsin Type IV; Sub.-2 40 uM): 9000 FU/min
